We go through six compounds from PubChem BioAssay AID1259407 (Chemical Carcinogenesis Research Information System (CCRIS), 2018).

Structures are written as SMILES. Activity calls are given as the source filed them. How the calls were made is not given here.

The test system of the data set is CCRIS mutagenicity, Ames/micronucleus/aberration tests. The data set is described as follows: CCRIS mutagenicity studies.
Setting [1] is: Test System: AMES SALMONELLA TYPHIMURIUM, Strain/Indicator: TA100, Metabolic Activation: NONE, Method: STANDARD PLATE.
[2] abbreviates: Test System: AMES SALMONELLA TYPHIMURIUM, Strain/Indicator: TA98, Metabolic Activation: NONE, Method: PREINCUBATION
[3] abbreviates: Test System: AMES SALMONELLA TYPHIMURIUM, Strain/Indicator: TA100, Metabolic Activation: NONE, Method: PREINCUBATION
The mark [4] stands for this setting: Test System: AMES SALMONELLA TYPHIMURIUM, Strain/Indicator: TA1535, Metabolic Activation: NONE, Method: PREINCUBATION

Regarding `CN(C)CCNC(=O)c1cccn2c(=O)c3ccccc3nc12`, the mutagenic call (Test System: AMES SALMONELLA TYPHIMURIUM, Strain/Indicator: TA1537, Metabolic Activation: NONE, Method: STANDARD PLATE) was “active; positive”.
With `O=C(ON(OCc1ccccc1)C(=O)c1ccccc1)c1cccc([N+](=O)[O-])c1`, the mutagenic call runs as follows: under setting [1], “active; positive”; (Test System: AMES SALMONELLA TYPHIMURIUM, Strain/Indicator: TA100, Metabolic Activation: RAT, S-9, AROCLOR, Method: STANDARD PLATE) “active; positive”.
In the case of `OC[C@@H](O)[C@@H](O[C@@H]1O[C@H](CO)[C@H](O)[C@H](O)[C@H]1O)[C@H](O)[C@@H](O)CO`, the mutagenic call under setting [2] was “inactive; negative”; the mutagenic call (Test System: AMES SALMONELLA TYPHIMURIUM, Strain/Indicator: TA98, Metabolic Activation: RAT, LIVER, S-9, PHENOBARBITAL AND 5,6-BENZOFLAVONE, Method: PREINCUBATION) is “inactive; negative”; the mutagenic call under setting [3] was “inactive; negative”; the mutagenic call (Test System: AMES SALMONELLA TYPHIMURIUM, Strain/Indicator: TA100, Metabolic Activation: RAT, LIVER, S-9, PHENOBARBITAL AND 5,6-BENZOFLAVONE, Method: PREINCUBATION) is “inactive; negative”; the mutagenic call under setting [4] is “inactive; negative”; the mutagenic call (Test System: AMES SALMONELLA TYPHIMURIUM, Strain/Indicator: TA1535, Metabolic Activation: RAT, LIVER, S-9, PHENOBARBITAL AND 5,6-BENZOFLAVONE, Method: PREINCUBATION) was “inactive; negative”. Besides, the mutagenic call was “inactive; negative” (Test System: AMES SALMONELLA TYPHIMURIUM, Strain/Indicator: TA1537, Metabolic Activation: NONE, Method: PREINCUBATION); “inactive; negative” (Test System: AMES SALMONELLA TYPHIMURIUM, Strain/Indicator: TA1537, Metabolic Activation: RAT, LIVER, S-9, PHENOBARBITAL AND 5,6-BENZOFLAVONE, Method: PREINCUBATION); “inactive; negative” (Test System: E. COLI, Strain/Indicator: WP2 UVRA, Metabolic Activation: NONE, Method: PREINCUBATION); “inactive; negative” (Test System: E. COLI, Strain/Indicator: WP2 UVRA, Metabolic Activation: RAT, LIVER, S-9, PHENOBARBITAL AND 5,6-BENZOFLAVONE, Method: PREINCUBATION).
As for `CCCCCN(N=O)C(N)=O`, the mutagenic call runs as follows: (Test System: E. COLI B, Strain/Indicator: H/R30R, Metabolic Activation: NONE) “active; positive”; (Test System: E. COLI B, Strain/Indicator: HS30R, Metabolic Activation: NONE) “active; positive”.
Turning to `CC(C)(O)C#N`, the mutagenic call (Test System: AMES SALMONELLA TYPHIMURIUM, Strain/Indicator: TA97, Metabolic Activation: HAMSTER, LIVER, S-9, AROCLOR 1254 (10 OR 30%), Method: PREINCUBATION) was “inactive; negative”; the mutagenic call (Test System: AMES SALMONELLA TYPHIMURIUM, Strain/Indicator: TA97, Metabolic Activation: NONE, Method: PREINCUBATION) is “inactive; negative”; the mutagenic call (Test System: AMES SALMONELLA TYPHIMURIUM, Strain/Indicator: TA97, Metabolic Activation: RAT, LIVER, S-9, AROCLOR 1254 (10%), Method: PREINCUBATION) is “inactive; negative”; the mutagenic call (Test System: AMES SALMONELLA TYPHIMURIUM, Strain/Indicator: TA97, Metabolic Activation: RAT, LIVER, S-9, AROCLOR 1254 (30%), Method: PREINCUBATION) is “inactive; negative”; the mutagenic call (Test System: AMES SALMONELLA TYPHIMURIUM, Strain/Indicator: TA98, Metabolic Activation: HAMSTER, LIVER, S-9, AROCLOR 1254 (10 OR 30%), Method: PREINCUBATION) is “inactive; negative”; the mutagenic call under setting [2] was “inactive; negative”. Also, the mutagenic call (Test System: AMES SALMONELLA TYPHIMURIUM, Strain/Indicator: TA98, Metabolic Activation: RAT, LIVER, S-9, AROCLOR 1254 (10%), Method: PREINCUBATION) was “inactive; negative”; the mutagenic call (Test System: AMES SALMONELLA TYPHIMURIUM, Strain/Indicator: TA98, Metabolic Activation: RAT, LIVER, S-9, AROCLOR 1254 (30%), Method: PREINCUBATION) was “inactive; negative”; the mutagenic call (Test System: AMES SALMONELLA TYPHIMURIUM, Strain/Indicator: TA100, Metabolic Activation: HAMSTER, LIVER, S-9, AROCLOR 1254 (10 OR 30%), Method: PREINCUBATION) was “inactive; negative”; the mutagenic call under setting [3] is “inactive; negative”; the mutagenic call (Test System: AMES SALMONELLA TYPHIMURIUM, Strain/Indicator: TA100, Metabolic Activation: RAT, LIVER, S-9, AROCLOR 1254 (10%), Method: PREINCUBATION) was “inactive; negative”; the mutagenic call (Test System: AMES SALMONELLA TYPHIMURIUM, Strain/Indicator: TA100, Metabolic Activation: RAT, LIVER, S-9, AROCLOR 1254 (30%), Method: PREINCUBATION) is “inactive; negative”. Moreover, the mutagenic call (Test System: AMES SALMONELLA TYPHIMURIUM, Strain/Indicator: TA1535, Metabolic Activation: HAMSTER, LIVER, S-9, AROCLOR 1254 (10 OR 30%), Method: PREINCUBATION) is “inactive; negative”; the mutagenic call under setting [4] was “inactive; negative”; the mutagenic call (Test System: AMES SALMONELLA TYPHIMURIUM, Strain/Indicator: TA1535, Metabolic Activation: RAT, LIVER, S-9, AROCLOR 1254 (10%), Method: PREINCUBATION) was “inactive; negative”; the mutagenic call (Test System: AMES SALMONELLA TYPHIMURIUM, Strain/Indicator: TA1535, Metabolic Activation: RAT, LIVER, S-9, AROCLOR 1254 (30%), Method: PREINCUBATION) is “inactive; negative”.
As to `C[C@]1(O)CC[C@H]2[C@@H]3CCC4=CC(=O)CC[C@]4(C)[C@@]3(F)[C@@H](O)C[C@@]21C`, the mutagenic call by setting is: (End Point: IN VITRO CHROMOSOMAL ABERRATIONS, Test System: HUMAN PERIPHERAL LYMPHOCYTES, Metabolic Activation: NONE) “active; positive after 72 hr treatment at 2 lower doses; positive after 48 or 72 hr trea”; (End Point: IN VIVO MICRONUCLEUS, Test System: BONE MARROW POLYCHROMATIC ERYTHROCYTES, Species: MOUSE, Strain/Sex: SWISS ALBINO/MALE, Route: IP) “active; positive”; (Test System: AMES SALMONELLA TYPHIMURIUM, Strain/Indicator: TA97A, Metabolic Activation: NONE, Method: STANDARD PLATE) “inactive; negative; growth inhibition at highest dose”; (Test System: AMES SALMONELLA TYPHIMURIUM, Strain/Indicator: TA97A, Metabolic Activation: RAT, LIVER, S-9, PHENOBARBITAL, Method: PREINCUBATION) “inactive; negative”; (Test System: AMES SALMONELLA TYPHIMURIUM, Strain/Indicator: TA98, Metabolic Activation: NONE, Method: STANDARD PLATE) “inactive; negative; growth inhibition at highest dose”; (Test System: AMES SALMONELLA TYPHIMURIUM, Strain/Indicator: TA98, Metabolic Activation: RAT, LIVER, S-9, PHENOBARBITAL, Method: PREINCUBATION) “inactive; negative”. Besides, the mutagenic call reads like this: under setting [1], “inactive; negative; growth inhibition at highest dose”; (Test System: AMES SALMONELLA TYPHIMURIUM, Strain/Indicator: TA100, Metabolic Activation: RAT, LIVER, S-9, PHENOBARBITAL, Method: PREINCUBATION) “inactive; negative”; (Test System: AMES SALMONELLA TYPHIMURIUM, Strain/Indicator: TA102, Metabolic Activation: NONE, Method: STANDARD PLATE) “inactive; negative; growth inhibition at highest dose”; (Test System: AMES SALMONELLA TYPHIMURIUM, Strain/Indicator: TA102, Metabolic Activation: RAT, LIVER, S-9, PHENOBARBITAL, Method: PREINCUBATION) “inactive; negative”; (Test System: AMES SALMONELLA TYPHIMURIUM, Strain/Indicator: TA1535, Metabolic Activation: NONE, Method: STANDARD PLATE) “inactive; negative; growth inhibition at highest dose”; (Test System: AMES SALMONELLA TYPHIMURIUM, Strain/Indicator: TA1535, Metabolic Activation: RAT, LIVER, S-9, PHENOBARBITAL, Method: PREINCUBATION) “inactive; negative”.
